Source: PubChem BioAssay AID330 (DTP/NCI, 2004)
“And” between values parts separate entries of the source, which are not always exact repeats. Equal entries are not always repeated. Toxic doses and inconclusive results are not listed. How the source made its calls: active means survival T/C of 150% or more; inactive means T/C below 125% in these data.

System: P388 leukemia ip, CD2F1 mice, survival T/C
Experiment: NCI In Vivo Anticancer Drug Screen. Data for tumor model P388 Leukemia (intraperitoneal) in CD2F1 (CDF1) mice
Conditions: endpoint: median survival time, higher = longer survival
Summary of the method: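 Mice carrying the transplanted tumor received test compound or vehicle. Survival was recorded in each group, and the value is the treated-group measurement divided by that of the vehicle-treated control group.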

[1] = dose: 12.5 mg/kg/injection, schedule: Q01DX005 (ip), vehicle: saline with Tween-80
[2] = dose: 50.0 mg/kg/injection, schedule: Q01DX005 (ip), vehicle: Klucel (hydroxypropylcellulose) (HPC)
[3] = dose: 100.0 mg/kg/injection, schedule: Q01DX005 (ip), vehicle: Klucel (hydroxypropylcellulose) (HPC)
[4] = dose: 200.0 mg/kg/injection, schedule: Q01DX005 (ip), vehicle: Klucel (hydroxypropylcellulose) (HPC)
[5] = dose: 50.0 mg/kg/injection, schedule: Q01DX005 (ip), vehicle: saline with Tween-80
[6] = dose: 100.0 mg/kg/injection, schedule: Q01DX005 (ip), vehicle: saline with Tween-80
[7] = dose: 200.0 mg/kg/injection, schedule: Q01DX005 (ip), vehicle: saline with Tween-80
[8] = dose: 6.25 mg/kg/injection, schedule: Q01DX009 (ip), vehicle: saline
[9] = dose: 12.5 mg/kg/injection, schedule: Q01DX009 (ip), vehicle: saline
[10] = dose: 25.0 mg/kg/injection, schedule: Q01DX009 (ip), vehicle: saline
[11] = dose: 50.0 mg/kg/injection, schedule: Q01DX009 (ip), vehicle: saline
[12] = dose: 100.0 mg/kg/injection, schedule: Q01DX009 (ip), vehicle: saline
[13] = dose: 50.0 mg/kg/injection, schedule: Q01DX009 (ip), vehicle: saline with Tween-80
[14] = dose: 100.0 mg/kg/injection, schedule: Q01DX009 (ip), vehicle: saline with Tween-80
[15] = dose: 200.0 mg/kg/injection, schedule: Q01DX009 (ip), vehicle: saline with Tween-80
[16] = dose: 60.0 mg/kg/injection, schedule: Q01DX005 (ip), vehicle: saline with Tween-80
[17] = dose: 120.0 mg/kg/injection, schedule: Q01DX005 (ip), vehicle: saline with Tween-80
[18] = dose: 240.0 mg/kg/injection, schedule: Q01DX005 (ip), vehicle: saline with Tween-80

Measured: T/C

N=C(N)c1ccc(N=NNc2ccc(C(=N)N)cc2)cc1
inactive: dose: 12.5 mg/kg/injection, schedule: Q01DX005 (ip), vehicle: Klucel + Tween-80 94 % of control | [1] 96 % of control | dose: 25.0 mg/kg/injection, schedule: Q01DX005 (ip), vehicle: Klucel + Tween-80 98 % of control | dose: 50.0 mg/kg/injection, schedule: Q01DX005 (ip), vehicle: Klucel + Tween-80 100 % of control

CC1=CC[C@@H]2[C@@H](CC[C@@]2(C)O)C(C)(C)[C@H]1CC[C@@H]1[C@@]2(C)CCC(=O)C(C)(C)O[C@@H]2CC[C@]1(C)O
inactive: dose: 7.5 mg/kg/injection, schedule: Q01DX005 (ip), vehicle: saline + Tween-80 + alcohol 92 % of control | dose: 15.0 mg/kg/injection, schedule: Q01DX005 (ip), vehicle: saline + Tween-80 + alcohol 98 % of control | dose: 30.0 mg/kg/injection, schedule: Q01DX005 (ip), vehicle: saline + Tween-80 + alcohol 97 % of control | dose: 60.0 mg/kg/injection, schedule: Q01DX005 (ip), vehicle: saline + Tween-80 + alcohol 103 % of control

CC1(C)SC(C(NC(=O)COc2ccccc2)C(=O)O)NC1C(=O)O (stereo not given)
inactive: dose: 50.0 mg/kg/injection, schedule: Q04DX003 (ip), vehicle: saline with Tween-80 90 % of control | dose: 100.0 mg/kg/injection, schedule: Q04DX003 (ip), vehicle: saline with Tween-80 95 % of control | dose: 200.0 mg/kg/injection, schedule: Q04DX003 (ip), vehicle: saline with Tween-80 95 % of control

CC1CC(=O)CCC2(C)C(OC(C)(C)C)CCC12 (stereo not given)
inactive: [2] 100 % of control | [3] 99 % of control | [4] 99 % of control

Cc1cc(O)c2c(c1)C(=O)C13C(=C2O)C(=O)C2C(O)C1C1C(O)C3C(=O)C3=C(O)c4c(O)cc(C)cc4C(=O)C321 (stereo not given)
inactive: dose: 3.12 mg/kg/injection, schedule: Q01DX005 (ip), vehicle: Klucel (hydroxypropylcellulose) (HPC) 110 % of control | dose: 6.25 mg/kg/injection, schedule: Q01DX005 (ip), vehicle: Klucel (hydroxypropylcellulose) (HPC) 100 % of control

O=C1CN(C2CCCCC2)CC(=O)N2CCCCN12
inactive: dose: 50.0 mg/kg/injection, schedule: Q01DX005 (ip), vehicle: saline 108 % of control | dose: 100.0 mg/kg/injection, schedule: Q01DX005 (ip), vehicle: saline 105 % of control | dose: 200.0 mg/kg/injection, schedule: Q01DX005 (ip), vehicle: saline 103 % of control

Cc1ccccc1Nc1ccnc2c1ccc1ccccc12
inactive: [5] 88 % of control | [6] 92 % of control | [7] 88 % of control

CN(C)c1ccc(N=Nc2ccc3ccc4c(N=Nc5ccc(N(C)C)cc5)ccc5ccc2c3c54)cc1
inactive: dose: 50.0 mg/kg/injection, schedule: Q01DX009 (ip), vehicle: Klucel (hydroxypropylcellulose) (HPC) 106 % of control | dose: 100.0 mg/kg/injection, schedule: Q01DX009 (ip), vehicle: Klucel (hydroxypropylcellulose) (HPC) 103 % of control | dose: 200.0 mg/kg/injection, schedule: Q01DX009 (ip), vehicle: Klucel (hydroxypropylcellulose) (HPC) 103 % of control

CCCCn1ccnc1C
inactive: [8] 109 % of control | [9] 91 % of control | [10] 103 % of control

Cc1[nH]n(-c2ccc(Cl)cc2)c(=O)c1N=Nc1cccc(C(F)(F)F)c1
inactive: [11] 88 % of control | [12] 91 % of control | dose: 200.0 mg/kg/injection, schedule: Q01DX009 (ip), vehicle: saline 93 % of control

Cc1ccc(-c2cc(N)n(-c3nnc(-c4ccccc4)c(-c4ccccc4)n3)n2)cc1
inactive: [5] 105 % of control | [6] 105 % of control | [7] 93 % of control

ClCCN(CCCl)c1ccc(/C=N/Nc2ccnc3cc(Cl)ccc23)cc1
inactive: [13] 95 % of control | [14] 101 % of control | [15] 93 % of control

O=C(OCC(OC(=O)c1ccccc1)C(OC(=O)c1ccccc1)C(OC(=O)c1ccccc1)c1nn[nH]n1)c1ccccc1 (stereo not given)
inactive: [5] 100 % of control | [6] 100 % of control | [7] 95 % of control

CCC1(CC)C(=O)C(CC)(CC)C1=O
inactive: [16] 104 % of control | [17] 110 % of control | [18] 110 % of control

O=C(C[n+]1cc2ccccc2cc1/C=N/O)c1ccccc1
inactive: dose: 50.0 mg/kg/injection, schedule: Q01DX009 (ip), vehicle: saline sonified 100 % of control | dose: 100.0 mg/kg/injection, schedule: Q01DX009 (ip), vehicle: saline sonified 100 % of control | dose: 200.0 mg/kg/injection, schedule: Q01DX009 (ip), vehicle: saline sonified 86 % of control

O=C(COCC(=O)N/N=C/c1ccc(Cl)cc1)N/N=C/c1ccc(Cl)cc1
inactive: dose: 6.25 mg/kg/injection, schedule: Q01DX005 (ip), vehicle: saline with Tween-80 95 % of control | [1] 95 % of control | [7] 95 % of control

Cc1ccccc1C1OC2=C(Nc3ccccc3N2)C1=O (stereo not given)
inactive: dose: 60.0 mg/kg/injection, schedule: Q01DX005 (ip), vehicle: Klucel (hydroxypropylcellulose) (HPC) 99 % of control | dose: 120.0 mg/kg/injection, schedule: Q01DX005 (ip), vehicle: Klucel (hydroxypropylcellulose) (HPC) 101 % of control | dose: 240.0 mg/kg/injection, schedule: Q01DX005 (ip), vehicle: Klucel (hydroxypropylcellulose) (HPC) 92 % of control

CN1C(=O)C(O)(CC(=O)c2ccccc2)c2ccccc21 (stereo not given)
inactive: [13] 93 % of control | [14] 93 % of control | [15] 90 % of control

Cc1cnc(=O)[nH]c1NOCc1ccccc1
inactive: dose: 15.0 mg/kg/injection, schedule: Q01DX001 (ip), vehicle: saline 98 % of control | dose: 30.0 mg/kg/injection, schedule: Q01DX001 (ip), vehicle: saline 105 % of control | dose: 60.0 mg/kg/injection, schedule: Q01DX001 (ip), vehicle: saline 100 % of control

Cc1cccc([B-]23OCC[N+]2(CNC(=O)c2ccccc2O)CCO3)c1 (stereo not given)
inactive: [2] 105 % of control | [3] 104 % of control | [4] 104 % of control

NC(CO)(CO)CO
inactive: dose: 1600.0 mg/kg/injection, schedule: Q01DX007 (ip), vehicle: saline 121 % of control

C1CNCCN1
inactive: [9] 113 % of control and 96 % of control | dose: 12.5 mg/kg/injection, schedule: Q01DX009 (ip), vehicle: suspension in saline 93 % of control | [10] 114 % of control and 96 % of control | [11] 94 % of control and 97 % of control | [12] 89 % of control | dose: 100.0 mg/kg/injection, schedule: Q01DX009 (ip), vehicle: suspension in saline 97 % of control | dose: 150.0 mg/kg/injection, schedule: Q01DX009 (ip), vehicle: saline 100 % of control and 114 % of control | dose: 150.0 mg/kg/injection, schedule: Q01DX009 (ip), vehicle: suspension in saline 93 % of control

Nc1ncnc2c1ncn2C1(CO)OCC(O)C(O)C1O (stereo not given)
inactive: [2] 101 % of control | [3] 100 % of control | [4] 101 % of control

CC1=C2CCC3(C)C(=C2OC1=O)C(C)=C(Cl)C(Br)C3Br (stereo not given)
inactive: [2] 102 % of control | [3] 111 % of control | [4] 118 % of control

CCCCCCCCCCN(CCCCCCCCCC)C1CC(OC2CC(O)(C(C)O)Cc3c(O)c4c(c(O)c32)C(=O)c2c(OC)cccc2C4=O)OC(C)C1O (stereo not given)
inactive: dose: 4.7 mg/kg/injection, schedule: Q04DX003 (ip), vehicle: water 99 % of control | dose: 9.4 mg/kg/injection, schedule: Q04DX003 (ip), vehicle: water 99 % of control | dose: 18.8 mg/kg/injection, schedule: Q04DX003 (ip), vehicle: water 101 % of control | dose: 37.5 mg/kg/injection, schedule: Q04DX003 (ip), vehicle: water 110 % of control | dose: 75.0 mg/kg/injection, schedule: Q04DX003 (ip), vehicle: water 101 % of control

C[N+](C)=c1ccc2nc3c(cc(NCCCNc4cc5oc6cc(=[N+](C)C)ccc-6nc5c5ccccc45)c4ccccc43)oc-2c1
inactive: [16] 106 % of control | [17] 113 % of control | [18] 103 % of control

NC1CC1N (stereo not given)
inactive: [8] 101 % of control | dose: 12.5 mg/kg/injection, schedule: Q01DX001 (ip), vehicle: saline 107 % of control | [9] 101 % of control | dose: 25.0 mg/kg/injection, schedule: Q01DX001 (ip), vehicle: saline 107 % of control | [10] 100 % of control | dose: 50.0 mg/kg/injection, schedule: Q01DX001 (ip), vehicle: saline 101 % of control
